Among the data in PubChem BioAssay AID248 (DTP/NCI, 2004) are T/C values, retold here.

Molecules are shown by their SMILES. Where “and” joins values, the source holds several entries; their conditions need not be identical. Equal values may be shown once. Toxic doses and inconclusive results are not listed.

This test deals with L1210 leukemia ip in BDF1 mice, survival T/C. The experiment in a line: NCI In Vivo Anticancer Drug Screen. Data for tumor model L1210 Leukemia (intraperitoneal) in B6D2F1 (BDF1) mice. The conditions noted are these: endpoint: mean survival time, higher = longer survival. Put shortly:
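Read-out is survival time, reported as the treated-group measurement over the vehicle-control measurement.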

Setting [1] is: dose: 100.0 mg/kg/injection, schedule: Q01DX009 (ip), vehicle: saline.
[2] abbreviates: dose: 200.0 mg/kg/injection, schedule: Q01DX009 (ip), vehicle: saline.
The mark [3] stands for this setting: dose: 100.0 mg/kg/injection, schedule: Q01DX009 (ip), vehicle: Klucel (hydroxypropylcellulose) (HPC).
The mark [4] stands for this setting: dose: 200.0 mg/kg/injection, schedule: Q01DX009 (ip), vehicle: Klucel (hydroxypropylcellulose) (HPC).
[5] abbreviates: dose: 100.0 mg/kg/injection, schedule: Q01DX001 (ip), vehicle: carboxymethylcellulose (CMC).
Setting [6] is: dose: 200.0 mg/kg/injection, schedule: Q01DX001 (ip), vehicle: carboxymethylcellulose (CMC).
[7] abbreviates: dose: 400.0 mg/kg/injection, schedule: Q01DX001 (ip), vehicle: carboxymethylcellulose (CMC).
[8] abbreviates: dose: 50.0 mg/kg/injection, schedule: Q01DX009 (ip), vehicle: saline with Tween-80.
[9] abbreviates: dose: 100.0 mg/kg/injection, schedule: Q01DX009 (ip), vehicle: saline with Tween-80.
Where [10] appears, read: dose: 100.0 mg/kg/injection, schedule: Q04DX003 (ip), vehicle: saline with Tween-80.

Regarding `OCC1OC(n2cnc3c2ncn2ccnc32)C(O)C1O` (centres undefined), the T/C runs as follows: (dose: 6.25 mg/kg/injection, schedule: Q03HX024 (ip), vehicle: saline) 98 % of control; (dose: 12.5 mg/kg/injection, schedule: Q03HX024 (ip), vehicle: saline) 93 % of control; (dose: 12.5 mg/kg/injection, schedule: Q04DX002 (ip), vehicle: saline) 93 % of control; (dose: 25.0 mg/kg/injection, schedule: Q03HX024 (ip), vehicle: saline) 95 % of control; (dose: 25.0 mg/kg/injection, schedule: Q04DX002 (ip), vehicle: saline) 97 % of control; (dose: 50.0 mg/kg/injection, schedule: Q03HX024 (ip), vehicle: saline) 92 % of control. For the same compound, the T/C is, setting by setting: (dose: 50.0 mg/kg/injection, schedule: Q04DX002 (ip), vehicle: saline) 179 % of control; (dose: 100.0 mg/kg/injection, schedule: Q01DX005 (ip), vehicle: saline) 101 % of control; under setting [1], 107 % of control; (dose: 100.0 mg/kg/injection, schedule: Q03HX024 (ip), vehicle: saline) 87 % of control; (dose: 200.0 mg/kg/injection, schedule: Q01DX005 (ip), vehicle: saline) 107 % of control; under setting [2], 89 % of control. Besides, the T/C was 88 % of control (dose: 200.0 mg/kg/injection, schedule: Q03HX024 (ip), vehicle: saline) and 104 % of control (dose: 400.0 mg/kg/injection, schedule: Q01DX009 (ip), vehicle: saline).

As for `CCOC(=O)OC1CC/C(=N\N=C(N)N)C1` (centres undefined), the T/C (dose: 15.0 mg/kg/injection, schedule: Q01DX Z (ip), vehicle: methylcellulose (MC)) is 110 % of control; the T/C (dose: 30.0 mg/kg/injection, schedule: Q01DX Z (ip), vehicle: methylcellulose (MC)) is 96 % of control; the T/C (dose: 120.0 mg/kg/injection, schedule: Q01DX Z (ip), vehicle: methylcellulose (MC)) was 92 % of control.

With `c1ccc(COc2ccnc(SCc3ccccc3)n2)cc1`, the T/C by setting is: (dose: 100.0 mg/kg/injection, schedule: Q01DX001 (ip), vehicle: Klucel (hydroxypropylcellulose) (HPC)) 90 % of control; under setting [3], 95 % of control; (dose: 200.0 mg/kg/injection, schedule: Q01DX001 (ip), vehicle: Klucel (hydroxypropylcellulose) (HPC)) 95 % of control; under setting [4], 93 % of control; (dose: 400.0 mg/kg/injection, schedule: Q01DX001 (ip), vehicle: Klucel (hydroxypropylcellulose) (HPC)) 100 % of control.

On to `CC(=O)c1ccc(C(C)(C)C)cc1`, for which the T/C by setting is: under setting [5], 105 % of control; under setting [6], 100 % of control; under setting [7], 100 % of control.

On to `Cc1cccc(C)c1NC(=O)Nc1ccc(S(N)(=O)=O)cc1`, for which the T/C reads like this: under setting [3], 100 % of control; (dose: 100.0 mg/kg/injection, schedule: Q04DX003 (ip), vehicle: Klucel (hydroxypropylcellulose) (HPC)) 101 % of control; under setting [4], 95 % of control and 97 % of control; (dose: 200.0 mg/kg/injection, schedule: Q04DX003 (ip), vehicle: Klucel (hydroxypropylcellulose) (HPC)) 94 % of control; (dose: 400.0 mg/kg/injection, schedule: Q01DX009 (ip), vehicle: Klucel (hydroxypropylcellulose) (HPC)) 100 % of control and 88 % of control; (dose: 400.0 mg/kg/injection, schedule: Q04DX003 (ip), vehicle: Klucel (hydroxypropylcellulose) (HPC)) 92 % of control.

For `O=S1(=O)CCCCN1`, the T/C by setting is: (dose: 44.0 mg/kg/injection, schedule: Q01DX009 (ip), vehicle: saline) 101 % of control; (dose: 87.5 mg/kg/injection, schedule: Q01DX009 (ip), vehicle: saline) 102 % of control; (dose: 175.0 mg/kg/injection, schedule: Q01DX009 (ip), vehicle: saline) 98 % of control; (dose: 350.0 mg/kg/injection, schedule: Q01DX009 (ip), vehicle: saline) 90 % of control.

For the compound `COC(=O)c1ccc2cc(OC)cc([N+](=O)[O-])c2n1`, the T/C was 87 % of control (dose: 50.0 mg/kg/injection, schedule: Q01DX001 (ip), vehicle: carboxymethylcellulose (CMC)); 93 % of control under setting [5]; 102 % of control under setting [6]; 93 % of control under setting [7].

For the compound `CC(=O)NCS(=O)(=O)O`, the T/C runs as follows: under setting [1], 104 % of control; under setting [2], 96 % of control.

As to `Cn1c[n+](-c2ccccc2)c([S-])n1`, the T/C by setting is: (dose: 100.0 mg/kg/injection, schedule: Q01DX001 (ip), vehicle: saline) 101 % of control; (dose: 200.0 mg/kg/injection, schedule: Q01DX001 (ip), vehicle: saline) 101 % of control; (dose: 400.0 mg/kg/injection, schedule: Q01DX001 (ip), vehicle: saline) 100 % of control.

Consider `O=C1CC(c2ccccc2)=CN1c1ccc2ccccc2c1`, for which the T/C is 100 % of control (dose: 100.0 mg/kg/injection, schedule: Q04DX002 (ip), vehicle: Klucel (hydroxypropylcellulose) (HPC)); 89 % of control (dose: 200.0 mg/kg/injection, schedule: Q04DX002 (ip), vehicle: Klucel (hydroxypropylcellulose) (HPC)); 100 % of control (dose: 400.0 mg/kg/injection, schedule: Q04DX002 (ip), vehicle: Klucel (hydroxypropylcellulose) (HPC)).

As for `C=C1C(=O)O[C@H]2C[C@@H](C)[C@@H]3CC(=O)OC[C@@]3(C)CC12` (some centres undefined), the T/C (dose: 25.0 mg/kg/injection, schedule: Q01DX009 (ip), vehicle: saline with Tween-80) was 108 % of control; the T/C (dose: 25.0 mg/kg/injection, schedule: Q04DX003 (ip), vehicle: saline with Tween-80) is 99 % of control; the T/C under setting [8] was 105 % of control; the T/C (dose: 50.0 mg/kg/injection, schedule: Q04DX003 (ip), vehicle: saline with Tween-80) was 105 % of control; the T/C under setting [9] was 101 % of control; the T/C under setting [10] was 93 % of control and 103 % of control.

Regarding `CC(=O)OCC1OC(n2nnc(CBr)c2CBr)C(OC(C)=O)C(OC(C)=O)C1OC(C)=O` (centres undefined), the T/C by setting is: (dose: 12.5 mg/kg/injection, schedule: Q01DX005 (ip), vehicle: other) 94 % of control; (dose: 25.0 mg/kg/injection, schedule: Q01DX005 (ip), vehicle: other) 102 % of control; (dose: 50.0 mg/kg/injection, schedule: Q01DX005 (ip), vehicle: other) 97 % of control.

Take `CC[CH2][Sn]([Br])([CH2]CC)[CH2]CC`: the T/C reads like this: (dose: 1.56 mg/kg/injection, schedule: Q01DX009 (ip), vehicle: saline) 95 % of control; (dose: 3.12 mg/kg/injection, schedule: Q01DX009 (ip), vehicle: saline) 102 % of control.

`CCN1C(=O)CN(CCN2CC(=O)N(c3ccccc3)C2=S)C1=S`: the T/C by setting is: under setting [8], 94 % of control; under setting [9], 102 % of control; (dose: 200.0 mg/kg/injection, schedule: Q01DX009 (ip), vehicle: saline with Tween-80) 90 % of control.

As to `Cc1cc2c(C)c3cc(C)c(C)c(C)c3cc2c(C)c1C`, the T/C (dose: 25.0 mg/kg/injection, schedule: Q01DX005 (ip), vehicle: water) was 114 % of control; the T/C (dose: 50.0 mg/kg/injection, schedule: Q01DX005 (ip), vehicle: water) was 94 % of control; the T/C (dose: 100.0 mg/kg/injection, schedule: Q01DX005 (ip), vehicle: water) is 94 % of control and 97 % of control; the T/C (dose: 200.0 mg/kg/injection, schedule: Q01DX005 (ip), vehicle: water) was 96 % of control; the T/C (dose: 400.0 mg/kg/injection, schedule: Q01DX005 (ip), vehicle: water) was 100 % of control.

In the case of `C=CC(=O)Nc1cccc(OC(=O)NC(C)(C)C)c1`, the T/C runs as follows: under setting [10], 101 % of control; (dose: 200.0 mg/kg/injection, schedule: Q04DX003 (ip), vehicle: saline with Tween-80) 92 % of control; (dose: 400.0 mg/kg/injection, schedule: Q04DX003 (ip), vehicle: saline with Tween-80) 87 % of control.
